Results: US9199200B2, “Submerged membrane bioreactor system and biological methods for removing bisphenol compounds from municipal wastewater” (Centre de Recherche Industrielle de Québec (CRIQ), priority 2010, dated 2015)

What was measured:
[1] = test system: aquatic ecosystems; details: Oehlmann et al.; cited from earlier work
[2] = Equilibrium adsorption isotherms of BPA on inactivated sludge (Freundlich, Langmuir); type: physicochemical
Description: To elucidate the plausible mechanisms of the biological removal of the bisphenol compounds, the removal of BPA was tested (adsorption on the biomass versus biological oxidation), and additional experiments are carried out in Erlenmeyer shake flasks containing either activated sludge or inactivated sludge in the presence of BPA. The sludge used for the tests is withdrawn from the SMBR unit. Prior to BPA addition in activated sludge sample, sludge is initially centrifuged at 8000 rpm at 4° C. for 10 min and softly washed. The inactivated sludge is prepared by subjecting sludge samples to a sterilization by adding 1.0 mL HgSO4 (20 g/L) to 200 mL of sludge. Then, the sterilized and centrifuged sample sludge is placed in conical flasks and shaken at 150 rpm at 22±2° C. for 2 h, and then centrifuged at 8000 rpm at 4° C. for 10 min. Different concentrations of BPA (0.45 to 18.2 mg/L) are added in the same mass of sludge (3.0 g of sludge diluted to 200 mL with milli-Q water). The concentration of total suspended solid (sludge) in the flask was 15 g TSS L^−1, which is similar to that observed in the SMBR system of the present invention. Three types of experiments are successively carried out. The first set tests consists in evaluating the adsorption capacity of BPA on sludge. For that, two Erlenmeyer shake flasks containing 200 mL of activated sludge (15 g TSS L^−1) are respectively contaminated by 5 and 10 mg/L of BPA. The flasks are shaken at 150 rpm at 22±2° C., pH=7±0.5 for 24 h and samples are taken in regular time intervals, and the amount of BPA adsorbed is determined by measuring the residual BPA concentrations in solution The same assay is carried out using inactivated sludge. Subsequently, isotherm adsorption experiments are carried out using different concentrations of BPA (0.45-18.2 mg/L) spiked in a same mass of sludge (200 ml of inactivated sludge at 15 g TSS/L). The flasks are shaken at 150 rpm for 2 h and samples are taken for analysis.
By analogy, the amount of BPA adsorbed on sludge at equilibrium (qe, mg/g) and the sorption efficiency is determined according to equations (1) described above. The specific adsorption coefficient (KD) can also be calculated. The coefficient KD is the ratio between the amount of BPA adsorbed on sludge at equilibrium (qe) and the residual (Ce) concentrations, according to the following equation (Eq. (3)): […]
Thermodynamic equilibrium constants are determined in order to evaluate adsorption affinity of BPA on sludge. The amount of BPA adsorbed on sludge is calculated using the following equation (Eq. (10)): […]
Adsorption isotherms allow presenting the variation of sorption with respect to the concentration of sorbate in the bulk solution at constant temperature. Equilibrium adsorptions of BPA on the biomass using Freundlich and Langmuir models are studied. These isotherms describe BPA uptake per unit weight of sorbent (qe) in function of the equilibrium sorbate concentration in the bulk solution (Ce). The Freundlich isotherm is described by the following equation (Eq. (11)) and is illustrated in FIG. 12: […]
The Langmuir isotherm is described by the following equation (Eq. (12)) and is represented in FIG. 13: […]
In fact, Langmuir adsorption isotherm is valid for monolayer sorption on a surface containing a limited number of sites, predicting a homogenous distribution of sorption energy. The reorganization of Eq. (12) leads to the following equation (Eq. (13)) as the linearised form of the Langmuir isotherm: […]
From Langmuir isotherm, it is possible to define a dimensionless constant (RL) taking into account the separation factor of equilibrium parameter. This dimensionless constant allows predicting if the adsorption system is favorable or not, as explained in Shokoohi et al. as cited above and by Gao et al. Journal of Fluorine Chemistry 130 (2009) 1035-1041. RL can be evaluated using the following equation (Eq. (14)): […]

[3] = cited from earlier work
[4] = Adsorption kinetics of BPA on inactivated sludge (pseudo-first order, pseudo-second order, Elovich); type: physicochemical
Description: According to the second set of assays, adsorption kinetic is evaluated using 200 mL of inactivated sludge at 15 g L^−1 and 2.0 mg/L of BPA is initially used. The flasks are shaken at 150 rpm at 22±2° C. and samples are taken at regular interval times (5, 10, 15, 20, 30, 40, 60, 80, 100, 120 min). Several appropriate models are reported in literature, but for the purposes of the experiments, three models are used, namely the Lagergren model (first order model) as described by Lagergren in Kung Sven. Veten. Hand 24 (1898) 1-39, the pseudo-second-order as described by Ho et al. in Process Biochemistry 34 (1999) 451-465, and the Elovich model as described in Chemical reviews (1960) 267-312.
Adsorption kinetic allows controlling the efficiency of the process and can be helpful to understand the mechanisms of the sorption process. To evaluate the sorption rate, the kinetic data are modeled using pseudo-first order and pseudo-second order equations. The kinetic models parameters are estimated by regression analysis method using Excel™ software. In accordance with Lagegren as cited above and with Bhattacharya et al., J. Env. Eng. ASCE 110 (1984) 110-122, pseudo-first order chemical sorption is described by the following equation (Eq. (15)):
This model is based on the assumption that the rate is proportional to the number of free sites. Integrating Eq. (15) with boundary conditions qt=0 at t=0 and qt=qt at t=t gives (Eq. (16)): ln(qe−qt)=ln qe−k1t (16)
In accordance with Ho et al. as cited above, for the rate constant of pseudo-second order chemical sorption, the following equation (Eq. (17)) has been also applied: […]
A third model, known as Elovich model described in Low et al. cited above, has been applied using the following equation (Eq. (19)): […]
If an amount (q0) of adsorbate is instantaneously adsorbed, after integration equation Eq. (20) becomes (Eq. (21)): […]

[5] = 2.0 mg/L BPA, 15 g/L inactivated sludge

In the case of `CC(C)(c1ccc(O)cc1)c1ccc(O)cc1` [BPA, 2,2-Bis(4-hydroxyphenyl)propane], the “Concentration of BPA with adverse effects in aquatic ecosystems” value [1] is listed as “below 1.0 μg/L”, the “Freundlich parameter shown as formula MATH:00015” value [2] is listed as 0.819 and the “KL (Langmuir constant)” value [2] is listed as 0.370 L/g. For the same compound, the “RL (dimensionless separation factor, Langmuir)” value [2] was 0.11, the “b (Langmuir constant)” value [2] was 0.444 L/mg and the “kf (Freundlich isotherm constant)” value [2] was 0.231 mg^1-1/n g^−1 · L^1/n. The “n (Freundlich constant, adsorption intensity)” value [2] was 1.22, the “qm, maximum BPA concentration capable of being adsorbed on sludge (Langmuir, KL/b)” value [2] was 0.833 mg/g and the Adsorbed fraction ([2]; C0 0.45 mg/L) was 84.4%. The “Equilibrium liquid phase concentration of BPA (Ce)” value ([2]; C0 0.45 mg/L) was 0.07 mg/L, the Adsorbed fraction ([2]; C0 0.91 mg/L) was 85.7% and the “Equilibrium liquid phase concentration of BPA (Ce)” value ([2]; C0 0.91 mg/L) was 0.13 mg/L. The Adsorbed fraction ([2]; C0 1.82 mg/L) was 78.6%, the “Equilibrium liquid phase concentration of BPA (Ce)” value ([2]; C0 1.82 mg/L) was 0.39 mg/L and the Adsorbed fraction ([2]; C0 4.74 mg/L) was 77.0%. For the same compound, the “Equilibrium liquid phase concentration of BPA (Ce)” value ([2]; C0 4.74 mg/L) was 1.09 mg/L, the Adsorbed fraction ([2]; C0 9.47 mg/L) was 76.0% and the “Equilibrium liquid phase concentration of BPA (Ce)” value ([2]; C0 9.47 mg/L) was 2.27 mg/L. The Adsorbed fraction ([2]; C0 13.67 mg/L) was 74.8%, the “Equilibrium liquid phase concentration of BPA (Ce)” value ([2]; C0 13.67 mg/L) was 3.45 mg/L and the Adsorbed fraction ([2]; C0 18.22 mg/L) was 70.5%. For the same compound, the “Equilibrium liquid phase concentration of BPA (Ce)” value ([2]; C0 18.22 mg/L) was 5.37 mg/L, the “Adsorption removal of BPA on sludge” value ([2]; of initial liquid phase concentration, 0.45-18.2 mg/L) was 70.5 to 85.7% and the Equilibrium adsorption time ([3]; Chen et al., submerged membrane bioreactor process) was 30 min. The “Freundlich coefficient log Kf” value ([3]; Clara et al.) was −0.614, the “BPA adsorption equilibrium time” value ([3]; Clara et al., conventional activated sludge reactor) was 2 h and the “q0 as share of the amount of BPA adsorbed at equilibrium (qe)” value [4] was 1.2%. For the same compound, the “k1, pseudo-first order rate constant” value [4, 5] was 0.032 min⁻¹, the “k2, pseudo-second order rate constant” value [4, 5] was 0.194 g/mg/min and the “q0, amount of BPA instantaneously adsorbed (Elovich)” value [4, 5] was 0.0013 mg/g. For the same compound, the “qe, pseudo-first order (Lagergren)” value [4, 5] was 0.109 mg/g, the “qe, pseudo-second order” value [4, 5] was 0.132 mg/g and the “α (Elovich)” value [4, 5] was 24.98 g/mg. For the same compound, the “α (Elovich), second parameter” value [4, 5] was 0.0040 mg/g/min.
